This passage reports stability and MIC results from patent US4200573A, “Derivatives of 3-carboxyrifamycin S and SV and process for their preparation” (Alfa Farmaceutici, S.p.A., priority 1977, dated 1980).

Data set [1] in a line: chemical stability (observation). In kind it is physicochemical.
The subject of the next data set is St. Aureus 209 P. The data set is described as follows: Minimal inhibiting concentration (MIC), in vitro antibacterial activity, St. Aureus 209 P. It counts as cell-based. The note with it: Staphylococcus aureus. The text has this:
(§1) The derivatives of 3-carboxyrifamycins S and SV according to the present invention have an antibacterial activity in vitro as shown by the data in the examples where are reported the minimal inhibiting concentrations (MIC) expressed in mcg/ml against different patogenic microorganisms.

The next data set concerns E. Coli ML/35. The experiment in a line: Minimal inhibiting concentration (MIC), in vitro antibacterial activity, E. Coli ML/35. In kind it is cell-based. To be noted: Escherichia coli.
Description: as §1

Another data set deals with Klebsiella Ottaviani. The experiment in a line: Minimal inhibiting concentration (MIC), in vitro antibacterial activity, Klebsiella Ottaviani. In kind it is cell-based. To be noted: read-out: Minimal inhibiting concentration (MIC).
Description: as §1

A further data set relates to Salmonella p typhi B. The data set is described as follows: Minimal inhibiting concentration (MIC), in vitro antibacterial activity, Salmonella p typhi B. It counts as cell-based. To be noted: read-out: Minimal inhibiting concentration (MIC).
Description: as §1

In brackets after ≈: the same amount, converted by molar mass. Entries after “also recorded” stand apart in the source; their conditions may differ.

On to 3-carboxyrifamycin, for which the stability result in data set [1] was “instable product and gives very easily rise to reaction of decarboxylation; also recorded: unstable product which easily decomposes”.
Regarding `COC(=O)C1=C2NC(=O)/C(C)=C\C=C\[C@H](C)[C@H](O)[C@@H](C)[C@@H](O)[C@@H](C)[C@H](OC(C)=O)[C@H](C)[C@@H](OC)/C=C/O[C@@]3(C)Oc4c(C)c(O)c(c(c4C3=O)C1=O)C2=O` [Example 6, 3-(carbomethoxy)rifamycin S], the MIC is 0.05 to 0.1 mg/L (≈ 0.0663 to 0.133 µM) with St. Aureus 209 P, 25 to 50 mg/L (≈ 33.2 to 66.3 µM) with E. Coli ML/35, 25 to 50 mg/L (≈ 33.2 to 66.3 µM) in the data set with Klebsiella Ottaviani and over 50 mg/L in the data set on Salmonella p typhi B.
Regarding `CO[C@H]1/C=C/O[C@@]2(C)Oc3c(C)c(O)c4c(c3C2=O)C(=O)C(C(=O)N2CCN(C)CC2)=C(NC(=O)/C(C)=C\C=C\[C@H](C)[C@H](O)[C@@H](C)[C@@H](O)[C@@H](C)[C@H](OC(C)=O)[C@@H]1C)C4=O` [Example 8, 3-(N-methyl N'-piperazinylcarbonyl)rifamycin S], the MIC was 0.1 to 0.25 mg/L (≈ 0.122 to 0.304 µM) in the data set on St. Aureus 209 P, over 50 mg/L against E. Coli ML/35, over 50 mg/L in the data set with Klebsiella Ottaviani and over 50 mg/L with Salmonella p typhi B.
For the compound `CO[C@H]1/C=C/O[C@@]2(C)Oc3c(C)c(O)c4c(c3C2=O)C(=O)C(C(=O)NN(C)C)=C(NC(=O)/C(C)=C\C=C\[C@H](C)[C@H](O)[C@@H](C)[C@@H](O)[C@@H](C)[C@H](OC(C)=O)[C@@H]1C)C4=O` [Example 10, 3-(NN-dimethyl N-hydrazinocarbonyl)rifamycin S], the MIC against E. Coli ML/35, with Klebsiella Ottaviani and in the data set with Salmonella p typhi B was over 50 mg/L throughout.
On to `CO[C@H]1/C=C/O[C@@]2(C)Oc3c(C)c(O)c4c(c3C2=O)C(=O)C(C(=O)OCC(O)CO)=C(NC(=O)/C(C)=C\C=C\[C@H](C)[C@H](O)[C@@H](C)[C@@H](O)[C@@H](C)[C@H](OC(C)=O)[C@@H]1C)C4=O` (some centres unmarked) [Example 12, 3-(1 glyceroxycarbonyl)rifamycin S], for which the MIC against St. Aureus 209 P is about 0.5 mg/L (≈ 0.614 µM); in the data set on E. Coli ML/35 it was over 100 mg/L; with Klebsiella Ottaviani it was over 100 mg/L; in the data set on Salmonella p typhi B, over 100 mg/L.
Regarding `CO[C@H]1/C=C/O[C@@]2(C)Oc3c(C)c(O)c4c(c3C2=O)C(=O)C(C(=O)N(C)C)=C(NC(=O)/C(C)=C\C=C\[C@H](C)[C@H](O)[C@@H](C)[C@@H](O)[C@@H](C)[C@H](OC(C)=O)[C@@H]1C)C4=O` [Example 13, 3-(N,N dimethylaminocarbonyl)rifamycin S], the MIC in the data set with E. Coli ML/35, in the data set on Klebsiella Ottaviani and in the data set on Salmonella p typhi B was over 50 mg/L each time.
On to `CO[C@H]1/C=C/O[C@@]2(C)Oc3c(C)c(O)c4c(c3C2=O)C(=O)C(C(=O)N(C)N2CCCCC2)=C(NC(=O)/C(C)=C\C=C\[C@H](C)[C@H](O)[C@@H](C)[C@@H](O)[C@@H](C)[C@H](OC(C)=O)[C@@H]1C)C4=O` [Example 14, 3-((N-(N'-piperidinyl)N-methyl)aminocarbonyl)rifamycin S], for which the MIC against St. Aureus 209 P is about 0.03 mg/L (≈ 0.0359 µM); in the data set with E. Coli ML/35, over 50 mg/L; in the data set on Klebsiella Ottaviani, over 50 mg/L; with Salmonella p typhi B, over 50 mg/L.
